Several values for one entry are separate records, joined by “and”; a condition that tells them apart may be missing. Identical values can stand only once.
Test system: H3K23Ac (KAT6A/B)
Experiment: Histone biomarker bottom-up LC-MS/MS, MCF-7
Assay type: cell-based
Conditions: for Ratio, H3_18_26 K23ac: Replicates 1-3
Excerpt: In this approach. […] Histones are then extracted from cell pellets and chemically derivatized with propionic anhydride, digested with trypsin, subjected to a second round of propionylation, and analyzed by LC-MS/MS. Measuring the relative intensity of modified versus unmodified forms of individual histone peptides enables simultaneous monitoring of multiple potential biomarkers of MYST inhibition. To minimize false positives, we focused on abundant and reproducible modifications (average stoichiometry of greater than 1% across triplicate samples, standard deviation less than or equal to the average measurement). To account for potential histone modification crosstalk, changes in both acetylated and methylated peptides were evaluated. 38 modified peptides passed this reproducible detection threshold including several established KAT biomarkers[41] including H3K9Ac (KAT2A/B), H3K18Ac (KAT3A/B), H3K14Ac (KAT7), H3K23Ac (KAT6A/B), H4K16Ac (KAT8), and H2A.ZK4/K7Ac (KAT5; Fig. 4B).
Genetic perturbations have unambiguously determined the dependence of H3K23Ac on KAT6A/B.[9], [41] The H3K23Ac biomarker critically complements chemoproteomics by allowing sensitive assessment of KAT6A and KAT6B activity, whose active site occupancy is otherwise difficult to assess. […] This is significant since several studies have used H3K9Ac as a proxy for KAT6A/B inhibition (Table S7),[8], [42] even though its regulation is most commonly attributed to KAT2A/B.[41] Since LC-MS/MS assays require specialized equipment and technical expertise, we also validated a panel of histone acetylation antibodies that recapitulate the dose-dependent inhibition of MYST targets by western blot (Fig. 4E). […]
nuclei were pelleted by centrifugation (600 rcf, 4°C, 5 min). Pelleted nuclei were washed twice with 150 μL of detergent-free NIB buffer, followed by centrifugation (600 rcf, 4°C, 5 min) to remove all detergent.
Nuclei were then resuspended in 400 μL of 0.4 N H₂SO₄ and rotated at 4°C overnight for acid extraction of histones. The following day, samples were centrifuged (11,000 rcf, 4°C, 10 min) and the histone-containing supernatant was transferred to a fresh tube. Trichloroacetic acid (100% TCA) was added to achieve a final concentration of 20% (v/v), tubes were inverted once to mix, and histone precipitation was performed on ice for at least 3 hours or overnight at 4°C. Precipitated histones were collected by centrifugation (11,000 rcf, 4°C, 10 min) and the supernatant carefully removed, leaving a visible film of histones on the tube wall or bottom. Histone pellets were subjected to sequential washes with 1 mL of ice-cold acidified acetone (0.1% 12 N HCl) followed by 1 mL of 100% ice-cold acetone, with centrifugation (11,000 rcf, 4°C, 5 min) after each wash. Samples were air-dried at room temperature, resuspended in 40 µL of ddH₂O, and protein […]
analysis, 1-2 µg of purified histones were loaded per lane and processed according to the general immunoblotting protocol described in General Materials and Methods.
Analysis of histone modifications by LC-MS/MS
Preparation of histone samples for LC-MS/MS was performed analogously to the procedure for immunoblotting above, with the following modifications. MCF7 cells (4.2 × 106) were seeded in 15 cm dishes and treated with PF-9363 or vehicle. Experiments were performed in triplicate. Following treatment and PBS washing, cells were scraped and collected in 15 mL falcon tubes, pelleted (500 rcf, 4°C, 5 min), resuspended in 1 mL cold PBS, transferred to microcentrifuge tubes, and pelleted again before flash-freezing in liquid nitrogen for storage at -80°C. For extraction, cell pellets (~100 μL) were resuspended in NIB buffer at a 1:10 ratio, and cells were lysed with NIB buffer containing 0.2% NP-40 for 8 minutes on ice. Nuclei were pelleted at 1,000 rcf for 8 minutes and washed three times with 500 μL detergent-free NIB

## COc1cccc(OC)c1S(=O)(=O)Nc1noc2cc(Cn3cccn3)cc(OC)c12 [PF-9363]
0.1 μM, 24 h, MCF-7 cells
  reduction of H3K23Ac: ~ 80%
KAT marker KAT6A/B, PF-9363 0.1 v 30
  Fold-change 0.1 v 30, H3_18_26 K23ac: 7.11
KAT marker KAT6A/B, PF-9363 (0.1 mM)
  Average ratio, H3_18_26 K23ac: 0.0330
KAT marker KAT6A/B, PF-9363 (30 mM)
  Average ratio, H3_18_26 K23ac: 0.0046
KAT marker KAT6A/B, dose 0.1
  Ratio, H3_18_26 K23ac: 0.02851 and 0.03904 and 0.03134
KAT marker KAT6A/B, dose 1
  Ratio, H3_18_26 K23ac: 0.02199 and 0.02064 and 0.0179
KAT marker KAT6A/B, dose 10
  Ratio, H3_18_26 K23ac: 0.01047 and 0 and 0.009458
KAT marker KAT6A/B, dose 30
  Ratio, H3_18_26 K23ac: 0 and 0.006901 and 0.007012
